From US20260347843A1, “NERVOUS SYSTEM DELIVERY ENHANCER” (priority 2022, published 2026)

Columns and labels:
[1] = Evaluation of motor function in an open-field test; assay type: in vivo, mouse; settings: coadministered with Mapt-targeting ASO (50 μg); 1 hour after intraventricular administration
Experimental: On the ASO described in Table 2, the preparation of the nucleic acid, an in vivo experiment, and the evaluation of the target gene suppression effect were performed by the same methods as in Example 1. In this Example, however, the dose of the nucleic acid agent per mouse was 9.4 nmol (50 μg).
By the below-described methods, evaluation of central nervous system toxicity and evaluation of motor function were performed on mice after intraventricular administration.
To evaluate the motor function, an open-field test was performed at each point of time after the intraventricular administration. Specifically, a mouse was placed in the center of a cage (50 cm in width×50 cm in […]×40 cm in height), and the track of the mouse was recorded for 5 minutes. On the basis of the data recorded, the total maximum moving speed (m/s) and the moving time(s) were measured using the video tracking software (ANY-maze).

[2] = tested on: exon 23/intron 23 of dystrophin pre-mRNA; assay: Exon 23 skipping efficiency in the brain after intraventricular administration; assay type: in vivo, mouse; settings: TGN-073 250 μg, hippocampus, striatum, cortex (any site), 7 days
Experimental: The mouse used was a 6-week-old male C57BL/6J mouse having a body weight of 20 g. In the following Examples, all the experiments performed using a mouse were based on n=3. PMO (the PMO single administration group) at 2.5 nmol or 2.5 nmol PMO with 250 μg of TGN-073 added thereto (the PMO/TGN-073 coadministration group) was administered in an amount of 10 μL to the left cerebral ventricle of a mouse.
At 1 week after the intraventricular administration, the mouse was dissected, and the hippocampus, striatum, and cortex (occipital lobe) were extirpated. Subsequently, mRNA was extracted from each tissue, using Isogen II. On the total RNA (900 ng) extracted, One-Step RT-PCR was performed using Qiagen One Step RT-PCR Kit (manufactured by Qiagen N.V.). A reaction solution was prepared in accordance with the protocol attached to the Kit. […]
A reaction product of the above-described RT-PCR, in an amount of 1 μL, was analyzed using Bioanalyzer 2100 (manufactured by Agilent Technologies, Inc.), and using an Agilent DNA1000 kit. The number “A” of moles of the nucleotide of the band skipped by exon 23 and the number “B” of moles of the nucleotide of the band not skipped by exon 23 were measured. On the basis of the measurement values of these “A” and “B”, the skipping efficiency was determined in accordance with the following formula: skipping efficiency (%)=A/(A+B)×100. […]

[3] = IgG antibody concentration in left hippocampus after intraventricular administration (Alexa 647 fluorescence); assay type: in vivo; settings: coadministered with IgG antibody (10 μg/mouse), TGN-073 250 μg/mouse, 3 hours
Experimental: In this Example, an Alexa 647 fluorescence-labeled IgG antibody (Goat anti-Rabbit IgG (H+L) Highly Cross-Adsorbed Secondary Antibody, Alexa Fluor (trademark)647, #A-21245, Invitrogen) alone or in combination with TGN-073 (250 μg/mouse) was administered at a dose of 10 μg/mouse to the left lateral ventricle of an 8-week-old ICR mouse (female). Hereinafter, the mice to which the IgG antibody alone was intraventricularly administered are referred to as the “IgG antibody single administration group”, and the mice to which the IgG antibody and TGN-073 were intraventricularly administered together are referred to as the “IgG/TGN-073 coadministration group”. Brain tissue samples of the left hippocampus were collected from the mice at 3 hours after the intraventricular administration. Using a fluorescence plate reader (M1000Pro, Tecan Group Ltd.), the Alexa 647 fluorescence intensity per brain weight was measured to thereby evaluate the concentration of the IgG antibody.

[4] = tested on: GFP expression in the central nervous system; assay: GFP expression from AAV9 vector in hippocampus-level coronal images after intraventricular administration; assay type: in vivo; settings: coadministered with AAV9-CMV-hrGFP, TGN-073 250 μg/mouse, 3 weeks
Experimental: In this Example, a GFP expression AAV9 (AAV9-CMV-hrGFP) as an adeno-associated viral (AAV) vector, alone or in combination with TGN-073 (250 μg/mouse), was administered at a dose of 26× 109 vg/mouse to the left lateral ventricle of a 7-week-old ICR mouse (female). Hereinafter, the mice to which only the AAV vector was intraventricularly administered are referred to as the “AAV single administration group”, and the mice to which the AAV vector and TGN-073 were intraventricularly administered together are referred to as the “AAV/TGN-073 coadministration group”. At 3 weeks after the intraventricular administration, the mouse was subjected to perfusion fixation using 4% paraformaldehyde. The mouse was subjected to cryoprotective treatment using a solution of 10% to 30% sucrose dissolved in PBS, and then, a cut-piece having a thickness of 40 μm was produced using a microtome. Using a fluorescence microscope (VHS-7000, Keyence Corporation), the GFP fluorescence (hippocampus-level coronal image) was captured.

[5] = tested on: Aquaporin-4; settings: as disclosed in WO2017/150704 and Huber V. J. et al., NeuroReport, 2018; cited from earlier work

SMILES: O=S(=O)(Nc1ncccc1OCc1ccccc1)c1ccccc1 [TGN-073, N-(3-benzyloxypyridin-2-yl)-benzene-sulfonamide]
- Maximum moving speed in open-field test vs ASO single administration [1]: substantially the same maximum moving speed
- Moving time in open-field test vs ASO single administration [1]: the same moving time
- Exon 23 skipping efficiency vs Chol-HDO (PMO) single administration ([2]; coadministered with Chol-HDO (PMO) (2.5 nmol)): noticeable increase
- Exon 23 skipping efficiency vs PMO single administration ([2]; coadministered with PMO (2.5 nmol)): noticeable increase
- IgG antibody concentration in the central nervous system (left hippocampus) vs IgG antibody single administration [3]: dramatic increase
- GFP expression amount vs AAV single administration [4]: increase in the expression amount
- Range of GFP expression in the central nervous system vs AAV single administration [4]: significantly wide range
- Promotion of the function of Aquaporin-4 [5]: can promote the function of Aquaporin-4
